The record followed here is patent publication US11203633B2, “Polynucleotides encoding antibodies or antigen binding fragments thereof that bind pseudomonas perv” (priority 2011, dated 2021).

The test system of this experiment is Psl exopolysaccharide (P. aeruginosa PAO1 and isogenic mutants). Description: Indirect ELISA / FACS binding to PAO1 and isogenic mutants. Details: species or system Pseudomonas aeruginosa. As to conditions: for binding (indirect ELISA): FIG. 3A; for binding (ELISA): FIG. 3E. The source says:
In addition, duplication of VH CDR3 loop sequences in the libraries (a measure of clonal enrichment during selection), was also found to be higher in the patient library, reaching 88-92%, compared to 15-25% in the naïve library at round 3 (FIG. 1D). Individual scFv phage from affinity selections were next screened by ELISA for reactivity to P. aeruginosa heterologous serotype strains (FIG. 1E). ELISA plates (Nunc; MAXISORP™) were coated with P. aeruginosa strains from overnight cultures as described (DiGiandomenico, A., et al., Infect Immun 72, 7012-7021 (2004)). Diluted antibodies were added to blocked plates for 1 hour, washed, and treated with HRP-conjugated anti-human secondary antibodies for 1 hour followed by development and analysis as described (Ulbrandt, N. D., et al., J Virol 80, 7799-7806 (2006)). The dominant species of phage obtained from whole cell selections with both libraries yielded serotype specific reactivity (data not shown).
For IgG expression, the VH and VL chains of selected antibodies were cloned into human IgG1 expression vectors, co-expressed in HEK293 cells, and purified by protein A affinity chromatography as described (Persic, L., et al., Gene 187, 9-18 (1997)). Human IgG1 antibodies made with the variable regions from these selected serotype independent phage were confirmed for P. aeruginosa specificity and prioritized for subsequent analysis by whole cell binding to dominant clinically relevant serotypes by FACS analysis (FIG. 1F), since this method is more stringent than ELISA. For the flow cytometry based binding assays mid-log phase P. aeruginosa strains were concentrated in PBS to an OD650 of 2.0. After incubation of antibody (10 μg/mL) and bacteria (˜1×10^7 cells) for 1 hr at 4° C. with shaking, washed cells were incubated with an ALEXA FLUOR 647® goat anti-human IgG antibody (Invitrogen, Carlsbad, Calif.) for 0.5 hr at 4° C. Washed cells were stained with BACLIGHT™ green bacterial stain as recommended (Invitrogen, Carlsbad, Calif.). Samples were run on a LSR II flow cytometer (BD Biosciences) and analyzed using BD FacsDiva (v. 6.1.3) and FlowJo (v. 9.2; TreeStar).
This example describes identification of the target of anti-P. aeruginosa antibodies derived from phenotypic screening. Target analysis was performed to test whether the serotype independent antibodies targeted protein or carbohydrate antigens. […] Isogenic mutants were constructed in genes responsible for 0-antigen, alginate, and LPS core biosynthesis; wbpL (O-antigen-deficient); wbpL/algD (O-antigen and alginate deficient); rmlC (O-antigen-deficient and truncated outer core); and galU (O-antigen-deficient and truncated inner core). P. aeruginosa mutants were constructed based on the allele replacement strategy described by Schweizer (Schweizer, H. P., Mol Microbiol 6, 1195-1204 (1992); Schweizer, H. D., Biotechniques 15, 831-834 (1993)). Vectors were mobilized from E. coli strain 517.1 into P. aeruginosa strain PAO1; recombinants were isolated as described (Hoang, T. T., et al., Gene 212, 77-86 (1998)). Gene deletion was confirmed by PCR. P. aeruginosa mutants were complemented with pUCP30T-based constructs harboring wild type genes. […] The rmlC and galU genes were recently shown to be required for biosynthesis of the Psl exopolysaccharide, a repeating pentasaccharide polymer consisting of D-mannose, L-rhamnose, and D-glucose. Cam-003 binding to an isogenic pslA knockout PAO1ΔpslA, was tested, as pslA is required for Psl biosynthesis (Byrd, M. S., et al., Mol Microbiol 73, 622-638 (2009)). Binding of Cam-003 to PAO1ΔpslA was abolished when tested by ELISA (FIG. 3B) and FACS (FIG. 3C), while the LPS molecule in this mutant was unaffected (FIG. 3D). Binding of Cam-003 was restored in a PAO1ΔwbpL/algD/pslA triple mutant complemented with pslA (FIG. 3E) as was the ability of Cam-003 to mediate opsonic killing to complemented PAO1ΔpslA in contrast to the mutant (FIGS. 3F and 3G). […]
Background: In an ELISA, binding on a coated surface is turned into a signal by an enzyme label.

As to “Cam-003: anti-Psl human IgG1 monoclonal antibody; VH SEQ ID NO:1, VL SEQ ID NO:2”, the “reactivity to LPS purified from PAO1” value is “not observed”. Also, the “binding (indirect ELISA)” value (PAO1 rmlC and galU mutants) was “abolished”. Also, the “binding (indirect ELISA)” value (PAO1 wbpL or wbpL/algD double mutant) is listed as “unaffected”. Besides, the “binding (ELISA and FACS)” value (PAO1ΔpslA, FIG. 3B-C) is given as “abolished”. The “binding (ELISA)” value (PAO1ΔwbpL/algD/pslA triple mutant complemented with pslA) is on record as “restored”. For the setting “Pel exopolysaccharide mutant”, the “binding (ELISA)” value was “unaffected”.
